One assay deals with H. pylori. The assay is described as follows: NCCLS agar dilution MIC, 21 H. pylori strains. The class given is cell-based, Helicobacter pylori. The conditions noted are these: 21 isolates of H. pylori, read at 72 hours; for MIC50 / MIC90: Helicobacter pylori. The text has this: (§1) The aim of the present invention is to evaluate the susceptibility of H. pylori to the new fluoroquinolone gemifloxacin (SB-265805). Twenty-one (21) H. pylori strains were obtained, including 16 clinical isolates CCUG 39297, CCUG 30988 (Lelwala-Guruge, J., Ljungh, A., & Wadstrom, T. 1992. APMIS 100, 908-13), CCUG 17875 (Lelwala-Guruge, J., Ljungh, A., & Wadstrom, T. 1992. APMIS 100, 908-13; Ilver, D., Arnqvist, A., Ogren, J., Frick, I. M., Kersulyte, D., Incecik, E. T. et al. 1998. Science 279, 373-7), CCUG 38771, CCUG 15818, CCUG 17874 (Lelwala-Guruge, J., Ljungh, A., & Wadstrom, T. 1992. APMIS 100, 908-13; O'Toole, P. W., Logan, S. M., Kostrzynska, M., Wadström, T., & Trust, T. J. 1991. Journal of Bacteriology 173, 505-513), CCUG 19087, CCUG 30987 (Lelwala-Guruge, J., Ljungh, A., & Wadstrom, T. 1992. APMIS 100, 908-13), CCUG 38772, CCUG 18943, CCUG 18295, CCUG 36718, CCUG 36719, CCUG 35899, CCUG 36720, CCUG 39924; and laboratory strains Not18, Not34, ATCC 43504, SS1, and ATCC 700392/26695. These strains include gastric biopsy isolates from the USA, Sweden, France, Belgium, UK, South Africa, and Australia Two of the clinical isolates are reported to have the cagA^+ genotype (strains CCUG 17874 and CCUG 17875) and three to be cagA^− (strains CCUG 36720, CCUG 36719, and CCUG 30988), but the cag genotype of the rest is unknown. […] The activities of amoxycillin, tetracycline and metronidazole against H. pylori ATCC 43504 were also tested as controls. The agar plates were inoculated using a Steers replicator and read at 72 hours.
On the technique in general: Agar dilution tests growth on a series of plates holding different concentrations.

The subject of the next assay is H. pylori ATCC 43504. Briefly: NCCLS agar dilution MIC, control antibiotics against quality control strain. The class given is cell-based. The note with it: Helicobacter pylori, ATCC43504, read at 72 hours.
Text: as §1

≈ marks a conversion by molar mass, not a printed value.

Results on seven compounds are retold here after US20040023983A1, “Methods of use of fluoroquinolone compounds against pathogenic helicobacter bacteria” (priority 2003, published 2004).

As usually defined, the MIC50 is the lowest concentration that inhibits either 50% of growth or 50% of the strains tested, depending on the study. High values mean lower susceptibility, low ones higher susceptibility. For orientation: MIC90 means the lowest concentration that inhibits either 90% of growth or 90% of the strains tested, depending on the study. Higher therefore signals weaker potency. Turning to `COc1c(N2CCNC(C)C2)c(F)cc2c(=O)c(C(=O)O)cn(C3CC3)c12` (stereo not drawn) [Gatifloxacin], in the assay with H. pylori, the “MIC Range” value lay within 0.03 to 0.5 µg/mL, the MIC50 is 0.13 µg/mL (≈ 0.346 µM) and the MIC90 is 0.13 µg/mL (≈ 0.346 µM).

The term MIC denotes the lowest concentration found to suppress growth. Consider `CN(C)[C@@H]1C(O)=C(C(N)=O)C(=O)[C@@]2(O)C(O)=C3C(=O)c4c(O)cccc4[C@@](C)(O)[C@H]3C[C@@H]12` [tetracycline], for which, in the assay on H. pylori ATCC 43504, the MIC amounted to 1 µg/mL (≈ 2.25 µM).

The compound `Cc1ncc([N+](=O)[O-])n1CCO` [metronidazole] displayed an MIC against H. pylori ATCC 43504 of 256 µg/mL (≈ 1500 µM). Compared with the last compound, the MIC is about 260-fold higher.

For the compound `CO/N=C1\CN(c2nc3c(cc2F)c(=O)c(C(=O)O)cn3C2CC2)CC1CN` (racemic) [Gemifloxacin, (R,S)-7-(3-aminomethyl-4-methoxyiminopyrrolidin-1-yl)-1-cyclopropyl-6-fluoro-4-oxo-1,4-dihydro-1,8-naphthyridine-3-carboxylic acid], in the assay with H. pylori, the “MIC Range” value lay within 0.03 to 1.0 µg/mL, the MIC50 was 0.06 µg/mL (≈ 0.154 µM) and the MIC90 came to 0.13 µg/mL (≈ 0.334 µM).

With `CC1(C)S[C@@H]2[C@H](NC(=O)[C@H](N)c3ccc(O)cc3)C(=O)N2[C@H]1C(=O)O` [amoxycillin], the MIC with H. pylori ATCC 43504 was determined as 0.06 µg/mL (≈ 0.164 µM).

With `COc1c(N2C[C@@H]3CCCN[C@@H]3C2)c(F)cc2c(=O)c(C(=O)O)cn(C3CC3)c12` [Moxifloxacin], in the assay with H. pylori, the “MIC Range” value was 0.13 to 2.0 µg/mL, the MIC50 came out at 0.25 µg/mL (≈ 0.623 µM) and the MIC90 is 0.5 µg/mL (≈ 1.25 µM).

As to `C[C@H]1COc2c(N3CCN(C)CC3)c(F)cc3c(=O)c(C(=O)O)cn1c23` [Levofloxacin], in the assay with H. pylori, the “MIC Range” value was in the range of 0.13 to 2.0 µg/mL, the MIC50 was 0.25 µg/mL (≈ 0.692 µM) and the MIC90 is 0.5 µg/mL (≈ 1.38 µM).
